Assays:
[1] = biological target: T1, DPP9 (Homo sapiens, UniProt Q86TI2); assay: biochemical; format: biochemical; parameters: purchased Proteros Biostructures GmbH, Germany
Protocol: (§1) Enzyme activity of DPP4, DPP8, DPP9 (Proteros Biostructures GmbH, Germany) and PREP (Sigma Aldrich, USA) was determined by measuring the initial velocity of AMC release from the fluorogenic substrate GP-AMC (Sigma Aldrich, USA) using a Tecan Spark® 10 M multimode microplate reader (Tecan Group Ltd., Switzerland) in activity buffer (20 mM HEPES/KOH pH 7.3, 110 mM potassium acetate, 2 mM Mg acetate, 0.5 mM EGTA, 0.02% Tween 20, supplemented with 1 mM DTT) and a final volume of 20 μL for maximal 60 min at 30 °C. Prior to activity measurement, 10 nM enzyme was incubated for 45 min at 30 °C and gentle shaking with the inhibitor compounds in concentrations ranging from 0 to 100 μM. The compounds were dissolved in DMSO and diluted in activity buffer (final DMSO concentration: 1%). […] IC50 values were calculated using Graph-Pad Prism v10.2.3 using the equation: [Inhibitor] vs. response—Variable slope (four parameters). All measurements were performed in triplicates and error bars represent standard errors of the fit.
Target sequence in this assay (Q86TI2 whole entry): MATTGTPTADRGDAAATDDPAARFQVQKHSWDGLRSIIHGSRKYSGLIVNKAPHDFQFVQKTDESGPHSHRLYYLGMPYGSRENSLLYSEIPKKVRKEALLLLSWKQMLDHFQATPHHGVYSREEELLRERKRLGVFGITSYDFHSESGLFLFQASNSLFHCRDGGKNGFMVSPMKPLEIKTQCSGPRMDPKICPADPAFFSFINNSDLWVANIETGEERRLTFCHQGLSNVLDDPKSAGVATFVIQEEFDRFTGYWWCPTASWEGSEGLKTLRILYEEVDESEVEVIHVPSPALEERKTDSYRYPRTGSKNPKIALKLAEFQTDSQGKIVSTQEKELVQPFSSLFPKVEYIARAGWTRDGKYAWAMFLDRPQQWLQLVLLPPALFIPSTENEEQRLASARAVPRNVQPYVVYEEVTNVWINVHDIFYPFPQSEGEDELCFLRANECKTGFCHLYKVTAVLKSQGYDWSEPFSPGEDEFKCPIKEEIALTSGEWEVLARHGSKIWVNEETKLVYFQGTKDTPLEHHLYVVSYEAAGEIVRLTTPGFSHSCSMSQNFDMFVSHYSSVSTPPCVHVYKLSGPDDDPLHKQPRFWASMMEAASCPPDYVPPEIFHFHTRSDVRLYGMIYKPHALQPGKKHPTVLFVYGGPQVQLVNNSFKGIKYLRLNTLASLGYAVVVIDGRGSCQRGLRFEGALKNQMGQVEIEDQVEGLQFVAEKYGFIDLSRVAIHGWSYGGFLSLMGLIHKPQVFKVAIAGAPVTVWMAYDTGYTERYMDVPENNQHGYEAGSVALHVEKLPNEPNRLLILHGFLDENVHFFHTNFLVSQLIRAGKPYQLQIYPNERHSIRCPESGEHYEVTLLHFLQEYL

[2] = biological target: T2, DPP8 (Homo sapiens, UniProt Q6V1X1); assay: biochemical; format: biochemical
T2 construct: purchased Proteros Biostructures GmbH, Germany
Protocol: as §1

[3] = biological target: T1, DPP9; assay: Native MS of DPP9 dimer after incubation with inhibitor; settings: 50 µM, 90 min
Target sequence in this assay (Q86TI2 20-863): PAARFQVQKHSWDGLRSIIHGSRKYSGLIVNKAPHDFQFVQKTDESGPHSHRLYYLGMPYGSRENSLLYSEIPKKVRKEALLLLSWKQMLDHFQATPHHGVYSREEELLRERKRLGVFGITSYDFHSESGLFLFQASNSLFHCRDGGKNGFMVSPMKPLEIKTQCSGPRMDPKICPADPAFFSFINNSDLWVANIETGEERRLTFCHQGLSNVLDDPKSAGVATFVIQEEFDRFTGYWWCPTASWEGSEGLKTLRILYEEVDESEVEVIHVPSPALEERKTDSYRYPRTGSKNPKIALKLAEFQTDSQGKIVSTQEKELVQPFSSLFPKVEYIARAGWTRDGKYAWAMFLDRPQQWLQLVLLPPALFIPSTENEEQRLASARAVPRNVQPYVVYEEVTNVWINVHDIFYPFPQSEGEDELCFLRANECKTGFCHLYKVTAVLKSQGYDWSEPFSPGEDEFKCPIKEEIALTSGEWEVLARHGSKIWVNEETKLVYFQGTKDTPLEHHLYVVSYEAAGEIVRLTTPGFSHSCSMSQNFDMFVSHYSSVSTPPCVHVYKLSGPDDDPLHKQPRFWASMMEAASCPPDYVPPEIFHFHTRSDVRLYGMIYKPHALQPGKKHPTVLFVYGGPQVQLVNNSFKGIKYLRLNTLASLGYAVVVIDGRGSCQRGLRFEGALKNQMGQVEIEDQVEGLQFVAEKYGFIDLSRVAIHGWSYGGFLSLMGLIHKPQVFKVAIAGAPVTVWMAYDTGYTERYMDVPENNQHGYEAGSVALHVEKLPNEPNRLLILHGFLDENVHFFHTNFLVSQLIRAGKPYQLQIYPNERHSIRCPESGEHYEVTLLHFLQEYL
Protocol: For this purpose, a rebuffering procedure using 10 kDa molecular weight cut-off spin-filter columns (Merck Millipore, USA) was applied for five cycles[58]. The resulting protein concentration was determined using microvolume spectroscopy (DS-11+, DeNovix, USA) and adjusted to 5 µM with 200 mM NH4OAc. […] A total number of 1000 MS spectra were recorded in positive EMR mode on an Exactive Plus EMR Orbitrap mass spectrometer (Thermo Fisher Scientific, USA) calibrated with CsI (2 mg mL^-1; Thermo Fisher Scientific, USA).
UniDec software (version 6.0.4) was used for mass deconvolution[59]. For this purpose, the default settings were used within an m/z range of 6500 to 9500, with the exception of a higher deconvolution resolution (sample mass every 1 Da), a narrower peak detection window (peak detection range of 80 Da) and a total peak normalization. GraphPad Prism v8.0.1 was used for data visualization.

[4] = test system: serine hydrolases (≡FP target proteins) in HEK293 cell lysates; assay: Competitive ABPP with fluorophosphonate-alkyne (≡FP) in HEK293 cell lysates; format: binding, H. sapiens; settings: 50 µM pre-incubation 2 h, 2 µM ≡FP
[5] = biological target: T1, DPP9; assay: Time-dependent DPP9 inhibition kinetics (kobs, KI, kinact, kapp); format: biochemical; parameters: purchased Proteros Biostructures GmbH, Germany
Protocol: (§2) To calculate the reaction rate of covalent bond formation between DPP proteins and inhibitor, kinact, KI and kapp was determined as previously described[30],[51]. Therefore, 250 µM GP-AMC was added simultaneously with a serial dilution of the inhibitor to 10 nM enzyme. Enzyme activity was measured for a maximum of 120 min at 30 °C, and fluorescence intensities were then plotted against time. Data was fitted to the following equation: Y=(vi/kobs)*(1−exp(−kobs*X)) using Graph-Pad Prism v10.2.3. The obtained pseudo-first-order rate constant was used to determine the maximum enzyme inhibition rate (kinact) and binding affinity (KI) by fitting the plot of kobs against inhibitor concentration to the following equation: Y=kinact/1+(KI/[I]) . The efficiency of covalent bond formation (kapp) was calculated by the ratio of kinact/KI. All measurements were performed in triplicates and error bars represent standard errors of the fit.
Target sequence in this assay (Q86TI2 whole entry): as the sequence (Q86TI2 whole entry) above

[6] = biological target: T2, DPP8; assay: Time-dependent DPP8 inhibition kinetics (kobs, KI, kinact, kapp); format: biochemical
Protocol: as §2

T2 sequence (Q6V1X1 whole entry): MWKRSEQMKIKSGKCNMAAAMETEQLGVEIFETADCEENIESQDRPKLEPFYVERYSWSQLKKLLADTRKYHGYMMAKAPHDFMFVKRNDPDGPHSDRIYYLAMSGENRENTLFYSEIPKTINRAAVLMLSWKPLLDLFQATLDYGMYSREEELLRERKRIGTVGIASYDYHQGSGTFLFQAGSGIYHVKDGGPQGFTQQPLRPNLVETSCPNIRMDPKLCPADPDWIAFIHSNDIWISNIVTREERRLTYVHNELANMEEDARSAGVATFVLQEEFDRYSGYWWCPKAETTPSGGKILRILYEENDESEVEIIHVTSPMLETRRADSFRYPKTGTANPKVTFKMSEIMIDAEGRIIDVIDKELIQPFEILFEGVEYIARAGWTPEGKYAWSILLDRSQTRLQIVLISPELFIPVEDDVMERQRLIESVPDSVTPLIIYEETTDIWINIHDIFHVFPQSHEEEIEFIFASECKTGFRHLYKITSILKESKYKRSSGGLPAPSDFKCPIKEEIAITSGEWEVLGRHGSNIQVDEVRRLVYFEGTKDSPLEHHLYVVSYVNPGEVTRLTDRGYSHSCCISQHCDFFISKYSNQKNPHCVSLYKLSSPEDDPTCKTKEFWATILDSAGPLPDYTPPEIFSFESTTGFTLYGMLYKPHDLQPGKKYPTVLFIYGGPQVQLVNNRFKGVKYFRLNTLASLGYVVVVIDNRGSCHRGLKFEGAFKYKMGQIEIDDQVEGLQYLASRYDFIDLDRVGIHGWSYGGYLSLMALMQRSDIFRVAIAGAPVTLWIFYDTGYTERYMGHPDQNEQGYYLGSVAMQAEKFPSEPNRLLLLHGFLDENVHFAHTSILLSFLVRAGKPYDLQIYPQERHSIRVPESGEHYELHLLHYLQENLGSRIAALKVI

Which IC50 [1] does the source give for N[C@H]1CCCN([P@@](N)(=O)NS(=O)(=O)O)C1=O [Sulphostin] here?
Its IC50 is 1.39 ± 0.108 µM.

What about the remaining activity at 0.15625 µM ([1]; read-out: DPP9 activity [%], c 156.25 nM) of the same molecule?
Its remaining activity at 0.15625 µM is 93.2%.

And the remaining activity at 0.3125 µM ([1]; read-out: DPP9 activity [%], c 312.5 nM)?
Its remaining activity at 0.3125 µM is 87.7%.

And the remaining activity at 2.5 µM ([1]; read-out: DPP9 activity [%], c 2500 nM)?
The remaining activity at 2.5 µM was 28.5%.

What about the remaining activity at 5 µM ([1]; read-out: DPP9 activity [%], c 5000 nM) of the same molecule?
Its remaining activity at 5 µM is 16.7%.

What about the remaining activity at 10 µM ([1]; read-out: DPP9 activity [%], c 10000 nM) of the same molecule?
Its remaining activity at 10 µM is 10.8%.

And the remaining activity at 25 µM ([1]; read-out: DPP9 activity [%], c 25000 nM)?
Its remaining activity at 25 µM is 5%.

And the remaining activity at 50 µM ([1]; read-out: DPP9 activity [%], c 50000 nM)?
Its remaining activity at 50 µM is 3.52%.

And the remaining activity at 100 µM ([1]; read-out: DPP9 activity [%], c 100000 nM)?
Its remaining activity at 100 µM is 2.34%.

What about the IC50 [2] of the same molecule?
Its IC50 is 6.93 ± 0.62 µM.

What about the remaining activity at 1.5625 µM ([2]; read-out: DPP8 activity [%], c 1562.5 nM) of the same molecule?
The remaining activity at 1.5625 µM was 93.5%.

And the remaining activity at 3.125 µM ([2]; read-out: DPP8 activity [%], c 3125 nM)?
Its remaining activity at 3.125 µM is 73.6%.

And the remaining activity at 6.25 µM ([2]; read-out: DPP8 activity [%], c 6250 nM)?
Its remaining activity at 6.25 µM is 47.7%.

What about the remaining activity at 25 µM ([2]; read-out: DPP8 activity [%], c 25000 nM) of the same molecule?
Its remaining activity at 25 µM is 11.8%.

And the remaining activity at 50 µM ([2]; read-out: DPP8 activity [%], c 50000 nM)?
The remaining activity at 50 µM was 5.62%.

What about the remaining activity at 100 µM ([2]; read-out: DPP8 activity [%], c 100000 nM) of the same molecule?
The remaining activity at 100 µM was 3.57%.

What about the “Difference [Da] between doubly and singly modified DPP9 dimer” value [3] of the same molecule?
Its value is 156 Da.

And the “Intensity [%] of DPP9 dimer with one modification” value [3]?
Its value is 44.37%.

What about the “Intensity [%] of DPP9 dimer with two modifications” value [3] of the same molecule?
The value was 32.64%.

What about the “Intensity [%] of unmodified DPP9 dimer” value [3] of the same molecule?
Its value is 22.99%.

And the “increase of DPP9 molecular weight, both active sites of the dimer modified” value [3]?
Its value is 311 Da.

What about the “increase of DPP9 molecular weight, first adduct (one active site of the dimer modified)” value [3] of the same molecule?
The value was 155 Da.

What about the “competition of ≡FP labeling” value [4] of the same molecule?
The value was “significantly competed only the labeling of DPP8/9”.

What about the “kobs DPP9” value ([5]; c 0.15625 µM) of the same molecule?
Its value is 6.239e-05 s⁻¹.

And the “kobs DPP9” value ([5]; c 5 µM)?
Its value is 0.0002112 s⁻¹.

What about the “kapp DPP9” value ([5]; ratio kinact/KI) of the same molecule?
Its value is 317 M⁻¹ s⁻¹.

And the KI (inactivation) ([5]; read-out: KI [M] best fit DPP9, source data)?
The KI (inactivation) was 7.33e-07 M.

What about the “kobs DPP8” value ([6]; c 1.5625 µM) of the same molecule?
Its value is 3.383e-05 s⁻¹.

And the “kobs DPP8” value ([6]; c 6.25 µM)?
The value was 4.011e-05 s⁻¹.

And the “kobs DPP8” value ([6]; c 25 µM)?
Its value is 0.0001308 s⁻¹.

And the “kobs DPP8” value ([6]; c 50 µM)?
The value was 0.0001589 s⁻¹.

What about the “kapp DPP8” value ([6]; ratio kinact/KI) of the same molecule?
The value was 11 M⁻¹ s⁻¹.

What about the KI (inactivation) ([6]; read-out: KI [M] best fit DPP8, source data) of the same molecule?
Its KI (inactivation) is 2.11e-05 M.

From article PMC11968843, “Sulphostin-inspired N-phosphonopiperidones as selective covalent DPP8 and DPP9 inhibitors” (Nature Communications, 2025)
